# PubChem BioAssay (NCI)
#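 Compound exposure: 48 hours, 5 concentrations, 96-well plates. The concentration for full growth arrest is given as TGI.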
# Key:
# Test in all cases: NCI anticancer screen, dose series, 48 h
# EKVX NSCLC = system: EKVX NSCLC
# KM12 colon = system: KM12 colon
# MALME-3M melanoma = system: MALME-3M melanoma
# OVCAR-3 ovarian = system: OVCAR-3 ovarian
# OVCAR-8 ovarian = system: OVCAR-8 ovarian
# SF-268 CNS = system: SF-268 CNS
# SF-539 CNS = system: SF-539 CNS
# SK-MEL-5 melanoma = system: SK-MEL-5 melanoma
# SNB-75 CNS = system: SNB-75 CNS
# U251 CNS = system: U251 CNS
Structure (SMILES),TGI (EKVX NSCLC),TGI (KM12 colon),TGI (MALME-3M melanoma),TGI (OVCAR-3 ovarian),TGI (OVCAR-8 ovarian),TGI (SF-268 CNS),TGI (SF-539 CNS),TGI (SK-MEL-5 melanoma),TGI (SNB-75 CNS),TGI (U251 CNS)
Cc1ccc(NC2=NCCO2)c2c1CCC2,> 100 µM,63.9 µM,92.4 µM,67.9 µM,> 100 µM,> 100 µM,56 µM,32.9 µM,84.5 µM,> 100 µM
Cc1ccc(-n2cc(-c3ccc(Cl)cc3)c3c(NN)ncnc32)cc1,9.99 µM,29 µM,21.5 µM,12.8 µM,7.02 µM,17.8 µM,11.3 µM,7.23 µM,7.6 µM,15.6 µM
NC(Cc1c[nH]c2cc([N+](=O)[O-])ccc12)C(=O)O (stereo not given),> 100 µM,> 100 µM,> 100 µM,> 100 µM,> 100 µM,> 100 µM,> 100 µM,> 100 µM,> 100 µM,> 100 µM
Nc1nccc(NCC2(CO)CCC2)n1,> 100 µM,> 100 µM,> 100 µM,> 100 µM,> 100 µM,> 100 µM,> 100 µM,> 100 µM,> 100 µM,> 100 µM
CC(=O)OC12c3ccccc3C(c3ccccc31)C1C(=O)N(c3ccccn3)C(=O)C12 (stereo not given),> 100 µM,> 100 µM,> 100 µM,> 100 µM,> 100 µM,> 100 µM,> 100 µM,> 100 µM,> 100 µM,> 100 µM
CCC(COC(=O)CC[C@@H](NC(=O)C(C)NC(=O)C(C)OC1C(O)C(CO)OC(OCc2ccccc2)C1NC(C)=O)C(N)=O)NC1c2ccccc2Nc2cccc([N+](=O)[O-])c21 (stereo not given in full),> 100 µM,> 100 µM,> 100 µM,> 100 µM,> 100 µM,> 100 µM,> 100 µM,> 100 µM,> 100 µM,> 100 µM
O=C1CC(C(CC(=O)c2ccccc2)c2ccccc2)C(=O)c2ccccc2N1 (stereo not given),> 100 µM,> 100 µM,> 100 µM,> 100 µM,> 100 µM,> 100 µM,> 100 µM,> 100 µM,> 100 µM,> 100 µM
COc1cccc(/C(Cl)=C(\C=O)c2cccc(OC)c2)c1,38.7 µM,26.3 µM,12.8 µM,29.1 µM,30.5 µM,21.2 µM,37.1 µM,23.8 µM,40.5 µM,22.2 µM
Cc1nnc2n(c1=O)CCN2C,> 100 µM,> 100 µM,> 100 µM,> 100 µM,> 100 µM,> 100 µM,> 100 µM,> 100 µM,> 100 µM,> 100 µM
